Biological target: amyloid-β (Aβ(1–42)) (Homo sapiens, UniProt P05067)
Assay: SPR aggregation assay
Assay type: biochemical

amyloid-β (Aβ(1–42)), sequence (P05067 672-713): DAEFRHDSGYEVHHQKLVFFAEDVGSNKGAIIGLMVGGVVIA

Question: For `C[n+]1ccc(-c2c3nc(c(-c4cc[n+](C)cc4)c4ccc([nH]4)c(-c4cc[n+](C)cc4)c4nc(c(-c5cc[n+](C)cc5)c5ccc2[nH]5)C=C4)C=C3)cc1` [TMPyP, 5,10,15,20-tetrakis(N-methyl-4-pyridyl)porphyrin], which IC50 is on record?
Answer: Its IC50 is 430 nM.
